Common to all, as to type: biochemical
One experiment addresses T1, HSL (Rattus norvegicus, UniProt P15304).
T1 construct: The partially purified HSL can be stored at −70° C. for 4 to 6 weeks; from tissue; host or cells: rat epididymal fat cells (male Wistar rats)
T1 sequence (P15304 1-768 isoform P15304-2): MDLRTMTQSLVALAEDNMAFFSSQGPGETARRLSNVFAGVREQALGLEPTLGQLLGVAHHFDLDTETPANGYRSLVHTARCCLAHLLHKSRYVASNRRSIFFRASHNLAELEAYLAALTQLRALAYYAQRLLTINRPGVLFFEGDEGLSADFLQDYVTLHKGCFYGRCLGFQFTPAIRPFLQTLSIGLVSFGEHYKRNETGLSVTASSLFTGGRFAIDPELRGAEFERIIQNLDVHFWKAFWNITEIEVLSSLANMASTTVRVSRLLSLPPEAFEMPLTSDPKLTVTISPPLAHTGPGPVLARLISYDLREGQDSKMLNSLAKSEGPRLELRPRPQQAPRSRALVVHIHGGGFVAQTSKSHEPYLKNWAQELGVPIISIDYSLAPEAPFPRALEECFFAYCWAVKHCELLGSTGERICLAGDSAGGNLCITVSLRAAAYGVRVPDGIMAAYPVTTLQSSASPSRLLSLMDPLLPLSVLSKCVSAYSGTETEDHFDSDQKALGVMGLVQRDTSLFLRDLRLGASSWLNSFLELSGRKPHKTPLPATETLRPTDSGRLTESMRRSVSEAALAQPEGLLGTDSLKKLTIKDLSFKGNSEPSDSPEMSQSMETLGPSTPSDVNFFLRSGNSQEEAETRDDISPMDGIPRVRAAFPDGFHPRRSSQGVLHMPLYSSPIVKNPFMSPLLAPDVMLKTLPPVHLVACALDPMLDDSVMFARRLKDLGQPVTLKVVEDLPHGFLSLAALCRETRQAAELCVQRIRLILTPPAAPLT
Briefly: TAG assay ([3H]trioleoylglycerol cleavage). As to the method:
Isolated rat fat cells are obtained from epididymal fatty tissue from untreated male rats (Wistar, 220-250 g) by collagenase treatment according to published processes. The fat cells from 10 rats are washed three times by flotation with 50 ml each of homogenization buffer ([…], pH 7.4, 0.25 M sucrose, 1 mM ethylenediamine-N,N,N′,N′-tetraacetic acid (EDTA), 1 mM dithiothreitol (DTT), 10 μg/ml of leupeptin, 10 μg/ml of antipain, 20 μg/ml of pepstatin) and finally taken up in 10 ml of homogenization buffer. The fat cells are homogenized in a Teflon-in-glass homogenizer (Braun-Melsungen) by 10 strokes at 1500 rpm and 15° C. […]
For the preparation of the substrate, 25-50 μCi of [^3H]trioleoylglycerol (TAG)(in toluene), 6.8 μMol of unlabeled trioleoylglycerol, and 0.6 mg of phospholipids (phosphatidylcholine/phosphatidylinositol 3:1 w/v) are mixed, dried over N2, and then taken up in 2 ml of 0.1 M potassium dihydrogenphosphate/potassium phosphate buffer (KPi)(pH 7.0) by ultrasonic treatment (Branson 250, microtip, setting 1-2, 2×1 min at a 1 min interval). […] After phase separation, one equivalent of the upper phase (1 ml) is taken and the radioactivity is determined by liquid scintillation measurement.
Substances are customarily tested in four independent batches. […] The IC50 value is calculated by means of an inhibition curve using at least 10 concentrations of the test substance. […]

In another experiment the test system is bacterial lipase. Briefly: Cleavage of NAG by bacterial lipase. The settings on record: for Increase in the absorption at 481 nm: Bacterial lipase, 60 min, NAG 0.05 mg/ml.
The next experiment has as its system PLA2 from snake venom. Description: Cleavage of NAG by PLA2. The settings on record: 60 min, NAG 0.05 mg/ml.

“And” between values parts separate entries of the source, which are not always exact repeats. Identical values can stand only once.

As for `O=C(CCCCCCCCCCCNc1ccc([N+](=O)[O-])c2nonc12)OCC(O)CO` (racemic) [Compound 3], the IC50 on HSL is 15.3 µM and 17.3 µM.
As to `O=C(CCCCCCCCCCCNc1ccc([N+](=O)[O-])c2nonc12)OCC(O)CO` (stereo not shown) [Compound (3)], the “Increase in the absorption at 481 nm” value with bacterial lipase (enzyme 10 arb. units) came out at 36 ± 7 arb. units; in the experiment with bacterial lipase (enzyme 20 arb. units) it was 81 ± 10 arb. units; in the experiment on bacterial lipase (enzyme 50 arb. units), 148 ± 18 arb. units; in the experiment on bacterial lipase (enzyme 75 arb. units), 238 ± 29 arb. units; in the experiment with bacterial lipase (enzyme 100 arb. units), 341 ± 39 arb. units; with bacterial lipase (enzyme 150 arb. units), 467 ± 57 arb. units. In addition, the “Increase in the absorption at 481 nm” value in the experiment on bacterial lipase (enzyme 200 arb. units) amounted to 748 ± 70 arb. units; in the experiment on bacterial lipase (enzyme 250 arb. units), 904 ± 83 arb. units; with bacterial lipase (enzyme 300 arb. units), 1056 ± 143 arb. units; with bacterial lipase (enzyme 400 arb. units), 1270 ± 187 arb. units; in the experiment with PLA2 from snake venom (PLA2, enzyme 10 arb. units), 1 ± 1 arb. units; in the experiment on PLA2 from snake venom (PLA2, enzyme 20 arb. units), 3 ± 2 arb. units. Further, the “Increase in the absorption at 481 nm” value with PLA2 from snake venom (PLA2, enzyme 50 arb. units) is on record as 5 ± 1 arb. units; in the experiment on PLA2 from snake venom (PLA2, enzyme 75 arb. units), 8 ± 2 arb. units; in the experiment with PLA2 from snake venom (PLA2, enzyme 100 arb. units), 10 ± 2 arb. units; in the experiment on PLA2 from snake venom (PLA2, enzyme 150 arb. units), 26 ± 6 arb. units; in the experiment on PLA2 from snake venom (PLA2, enzyme 200 arb. units), 35 ± 9 arb. units; in the experiment with PLA2 from snake venom (PLA2, enzyme 250 arb. units), 46 ± 12 arb. units. For the same compound, the “Increase in the absorption at 481 nm” value is given as 54 ± 9 arb. units with PLA2 from snake venom (PLA2, enzyme 300 arb. units) and 75 ± 11 arb. units in the experiment with PLA2 from snake venom (PLA2, enzyme 400 arb. units). In the experiment on bacterial lipase (bacterial lipase, conditions optimized for HSL), the “Activity relative to HSL” value is 25%.

Values taken from patent US6783949B1, “Processes for determining whether a test substance contains lipases or lipase inhibitors” (Aventis Pharma Deutschland GmbH, priority 1999, dated 2004).
